Measurements taken from ChEMBL document CHEMBL3860039, “Structure-Activity Relationship and Signaling of New Chimeric CXCR4 Agonists” (J Med Chem, 2016).

biological target: C-X-C chemokine receptor type 4 (Homo sapiens, UniProt P61073); experiment: Displacement of [125I]-CXCL12 from HA-tagged human recombinant CXCR4 expressed in HEK293 cells incubated for 1 hr by gamma-radiation counting analysis; type: cell-based; conditions: not given
Sequence (P61073 whole entry): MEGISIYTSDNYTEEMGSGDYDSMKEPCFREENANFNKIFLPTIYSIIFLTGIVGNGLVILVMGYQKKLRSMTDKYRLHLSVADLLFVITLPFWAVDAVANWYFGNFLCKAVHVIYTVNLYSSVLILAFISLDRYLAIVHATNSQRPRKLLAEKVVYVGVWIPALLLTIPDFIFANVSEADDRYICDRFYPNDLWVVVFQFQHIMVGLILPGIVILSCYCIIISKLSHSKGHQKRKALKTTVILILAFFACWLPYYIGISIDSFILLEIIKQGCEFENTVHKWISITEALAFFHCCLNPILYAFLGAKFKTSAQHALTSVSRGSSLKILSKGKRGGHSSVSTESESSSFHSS

In order of rising IC50:
1. CC(C)C[C@H](NC(=O)[C@H](CO)NC(=O)[C@@H](N)C(C)C)C(=O)N[C@@H](CO)C(=O)N[C@@H](Cc1ccc(O)cc1)C(=O)N[C@@H](CCCNC(=N)N)C(=O)N[C@@H](CO)C(=O)N[C@@H](C)C(=O)NCCCC[C@H](NC(=O)[C@@H]1CSSC[C@H](NC(=O)[C@H](Cc2ccc3ccccc3c2)NC(=O)[C@H](CCCNC(=N)N)NC(=O)[C@@H](N)CCCNC(=N)N)C(=O)N[C@@H](Cc2ccc(O)cc2)C(=O)N[C@@H](CCCNC(=N)N)C(=O)N[C@@H](CCCCN)C(=O)N[C@H](CCCCN)C(=O)N2CCC[C@H]2C(=O)N[C@@H](Cc2ccc(O)cc2)C(=O)N[C@@H](CCCNC(=N)N)C(=O)N[C@@H](CCCNC(=N)N)C(=O)N1)C(=O)O  95 nM
2. CC(C)C[C@H](NC(=O)[C@H](CO)NC(=O)[C@H](C(C)C)N(C)C(=O)[C@@H]1CCCN1C(=O)[C@@H](N)CCCCN)C(=O)N[C@@H](CO)C(=O)N[C@@H](Cc1ccc(O)cc1)C(=O)N[C@@H](CCCNC(=N)N)C(=O)N[C@@H](CO)C(=O)N[C@@H](C)C(=O)NCCCC[C@H](NC(=O)[C@@H]1CSSC[C@H](NC(=O)[C@H](Cc2ccc3ccccc3c2)NC(=O)[C@H](CCCNC(=N)N)NC(=O)[C@@H](N)CCCNC(=N)N)C(=O)N[C@@H](Cc2ccc(O)cc2)C(=O)N[C@@H](CCCNC(=N)N)C(=O)N[C@@H](CCCCN)C(=O)N[C@H](CCCCN)C(=O)N2CCC[C@H]2C(=O)N[C@@H](Cc2ccc(O)cc2)C(=O)N[C@@H](CCCNC(=N)N)C(=O)N[C@@H](CCCNC(=N)N)C(=O)N1)C(=O)O  127 nM
3. CC(C)C[C@H](NC(=O)[C@H](CO)NC(=O)[C@@H](NC(=O)C1(NC(=O)[C@@H](N)CCCCN)Cc2ccccc2C1)C(C)C)C(=O)N[C@@H](CO)C(=O)N[C@@H](Cc1ccc(O)cc1)C(=O)N[C@@H](CCCNC(=N)N)C(=O)N[C@@H](CO)C(=O)N[C@@H](C)C(=O)NCCCC[C@H](NC(=O)[C@@H]1CSSC[C@H](NC(=O)[C@H](Cc2ccc3ccccc3c2)NC(=O)[C@H](CCCNC(=N)N)NC(=O)[C@@H](N)CCCNC(=N)N)C(=O)N[C@@H](Cc2ccc(O)cc2)C(=O)N[C@@H](CCCNC(=N)N)C(=O)N[C@@H](CCCCN)C(=O)N[C@H](CCCCN)C(=O)N2CCC[C@H]2C(=O)N[C@@H](Cc2ccc(O)cc2)C(=O)N[C@@H](CCCNC(=N)N)C(=O)N[C@@H](CCCNC(=N)N)C(=O)N1)C(=O)O  137 nM
4. CC(C)[C@H](NC(=O)[C@@H]1CCCN1C(=O)[C@@H](N)CCCCN)C(=O)N[C@@H](CO)C(=O)N[C@@H](C)C(=O)N[C@@H](CO)C(=O)N[C@@H](Cc1ccc(O)cc1)C(=O)N[C@@H](CCCNC(=N)N)C(=O)N[C@@H](CO)C(=O)N[C@@H](C)C(=O)NCCCC[C@H](NC(=O)[C@@H]1CSSC[C@H](NC(=O)[C@H](Cc2ccc3ccccc3c2)NC(=O)[C@H](CCCNC(=N)N)NC(=O)[C@@H](N)CCCNC(=N)N)C(=O)N[C@@H](Cc2ccc(O)cc2)C(=O)N[C@@H](CCCNC(=N)N)C(=O)N[C@@H](CCCCN)C(=O)N[C@H](CCCCN)C(=O)N2CCC[C@H]2C(=O)N[C@@H](Cc2ccc(O)cc2)C(=O)N[C@@H](CCCNC(=N)N)C(=O)N[C@@H](CCCNC(=N)N)C(=O)N1)C(=O)O  171 nM
5. CC(C)C[C@H](NC(=O)[C@H](CO)NC(=O)[C@@H](NC(=O)[C@@H]1Cc2ccccc2CN1C(=O)[C@@H](N)CCCCN)C(C)C)C(=O)N[C@@H](CO)C(=O)N[C@@H](Cc1ccc(O)cc1)C(=O)N[C@@H](CCCNC(=N)N)C(=O)N[C@@H](CO)C(=O)N[C@@H](C)C(=O)NCCCC[C@H](NC(=O)[C@@H]1CSSC[C@H](NC(=O)[C@H](Cc2ccc3ccccc3c2)NC(=O)[C@H](CCCNC(=N)N)NC(=O)[C@@H](N)CCCNC(=N)N)C(=O)N[C@@H](Cc2ccc(O)cc2)C(=O)N[C@@H](CCCNC(=N)N)C(=O)N[C@@H](CCCCN)C(=O)N[C@H](CCCCN)C(=O)N2CCC[C@H]2C(=O)N[C@@H](Cc2ccc(O)cc2)C(=O)N[C@@H](CCCNC(=N)N)C(=O)N[C@@H](CCCNC(=N)N)C(=O)N1)C(=O)O  222 nM
6. CC(C)C[C@H](NC(=O)[C@H](CO)NC(=O)[C@@H](NC(=O)[C@@H]1CCCN1C(=O)[C@@H](N)CCCCN)C(C)C)C(=O)N[C@@H](CO)C(=O)N[C@@H](C)C(=O)N[C@@H](CCCNC(=N)N)C(=O)N[C@@H](CO)C(=O)N[C@@H](C)C(=O)NCCCC[C@H](NC(=O)[C@@H]1CSSC[C@H](NC(=O)[C@H](Cc2ccc3ccccc3c2)NC(=O)[C@H](CCCNC(=N)N)NC(=O)[C@@H](N)CCCNC(=N)N)C(=O)N[C@@H](Cc2ccc(O)cc2)C(=O)N[C@@H](CCCNC(=N)N)C(=O)N[C@@H](CCCCN)C(=O)N[C@H](CCCCN)C(=O)N2CCC[C@H]2C(=O)N[C@@H](Cc2ccc(O)cc2)C(=O)N[C@@H](CCCNC(=N)N)C(=O)N[C@@H](CCCNC(=N)N)C(=O)N1)C(=O)O  230 nM
7. CCCC[C@H](N)C(=O)N1CCC[C@H]1C(=O)N[C@H](C(=O)N[C@@H](CO)C(=O)N[C@@H](CC(C)C)C(=O)N[C@@H](CO)C(=O)N[C@@H](Cc1ccc(O)cc1)C(=O)N[C@@H](CCCNC(=N)N)C(=O)N[C@@H](CO)C(=O)N[C@@H](C)C(=O)NCCCC[C@H](NC(=O)[C@@H]1CSSC[C@H](NC(=O)[C@H](Cc2ccc3ccccc3c2)NC(=O)[C@H](CCCNC(=N)N)NC(=O)[C@@H](N)CCCNC(=N)N)C(=O)N[C@@H](Cc2ccc(O)cc2)C(=O)N[C@@H](CCCNC(=N)N)C(=O)N[C@@H](CCCCN)C(=O)N[C@H](CCCCN)C(=O)N2CCC[C@H]2C(=O)N[C@@H](Cc2ccc(O)cc2)C(=O)NC(CCCNC(=N)N)C(=O)N[C@@H](CCCNC(=N)N)C(=O)N1)C(=O)O)C(C)C (some centres undefined)  267 nM
8. CC(C)C[C@H](NC(=O)[C@H](CO)NC(=O)[C@@H](NC(=O)[C@@H]1CCCN1C(=O)[C@H](C)N)C(C)C)C(=O)N[C@@H](CO)C(=O)N[C@@H](Cc1ccc(O)cc1)C(=O)N[C@@H](CCCNC(=N)N)C(=O)N[C@@H](CO)C(=O)N[C@@H](C)C(=O)NCCCC[C@H](NC(=O)[C@@H]1CSSC[C@H](NC(=O)[C@H](Cc2ccc3ccccc3c2)NC(=O)[C@H](CCCNC(=N)N)NC(=O)[C@@H](N)CCCNC(=N)N)C(=O)N[C@@H](Cc2ccc(O)cc2)C(=O)N[C@@H](CCCNC(=N)N)C(=O)N[C@@H](CCCCN)C(=O)N[C@H](CCCCN)C(=O)N2CCC[C@H]2C(=O)N[C@@H](Cc2ccc(O)cc2)C(=O)N[C@@H](CCCNC(=N)N)C(=O)N[C@@H](CCCNC(=N)N)C(=O)N1)C(=O)O  282 nM

same assay, conditions: hek293

`CC(C)C[C@H](NC(=O)[C@H](CO)NC(=O)[C@@H](NC(=O)[C@H]1CCCN1C(=O)[C@@H](N)CCCCN)C(C)C)C(=O)N[C@@H](CO)C(=O)N[C@@H](Cc1ccc(O)cc1)C(=O)N[C@@H](CCCNC(=N)N)C(=O)N[C@@H](CO)C(=O)N[C@@H](C)C(=O)NCCCC[C@H](NC(=O)[C@@H]1CSSC[C@H](NC(=O)[C@H](Cc2ccc3ccccc3c2)NC(=O)[C@H](CCCNC(=N)N)NC(=O)[C@@H](N)CCCNC(=N)N)C(=O)N[C@@H](Cc2ccc(O)cc2)C(=O)N[C@@H](CCCNC(=N)N)C(=O)N[C@@H](CCCCN)C(=O)N[C@H](CCCCN)C(=O)N2CCC[C@H]2C(=O)N[C@@H](Cc2ccc(O)cc2)C(=O)N[C@@H](CCCNC(=N)N)C(=O)N[C@@H](CCCNC(=N)N)C(=O)N1)C(=O)O` showed an IC50 of 151 nM.
